Results as given in patent publication EP0011663A1, “Toilet and dental preparations and their use for oral and dental hygiene” (UNILEVER PLC, priority 1978, dated 1980).
“Also recorded” adds a separate entry of the source. Like-named read-outs stand apart in the source and are kept apart here. Marks after values point to notes of the source that are not given here.

What was measured:
[1] = test system: in vitro plaque; assay: in vitro artificial plaque assay on saliva-coated aluminium plummets (Tests 1, 3, 4 and general statements); assay type: cell-based; conditions: for minimum amount of the metal compound necessary to result in control of plaque: at the site of formation of the plaque, under the conditions of the tests
Experimental: An in vitro test was used in the Tests described herein for examining and effects of chemotherapeutic agents on plaque, and was carried out in accordance with the test reported in the Journal of Dental Research, Vol. 55, February 1976, page B286, by R T Evans, P J Baker, R A Coburn and R J Genco. An assay system for producing artificial plaque was used to screen antiplaque agents rapidly under conditions which simulated those found in the oral cavity.
The in vitro plaque was formed at 37°C on uniformly- sized aluminium plummets which were first coated with saliva. The plummets were then placed in a growth medium inoculated with clinical plaque samples. After seven hours the plummets were suspended overnight in a 25;0 saliva mixture. On the second day, the plummets were immersed in a 50% saliva - 50% test compound mixture for one minute, placed in the growth medium for seven hours, retreated with the test mixture and suspended in 25% saliva overnight. The plummets were treated again on the third day and incubated in the growth medium for three hcurs. The plaques were removed from the plummets by donication into approximately six millilitres of buffer and quantitated by optical density (O.D.) in a Beckman DU spectrophotometer at 570 nm.
Positive controls were included to determine relative activity. Comparisons of antiplaque activity were then made within a given experiment. At least five replicas per compound were examined.
The experiments are conducted in the same manner, in a 15% ethanol/water media at pH 5.
The effects of 0.060% tetradecylamine (TDA) 0.05 SnCl4, and the combination of SnCl and TDA at these concentrations are examined by the artificial plaque method previously described, all with 15% ethanol, at pH 2.6.

[2] = test system: rats; conditions: orally in rats; Seventh Issue of the Merck Index; cited from earlier work
[3] = test system: plaque; conditions: clinical data, zinc salt alone; cited from earlier work
[4] = test system: in vitro plaque; assay: in vitro artificial plaque assay, treatment on the third day eliminated (Test 2); assay type: cell-based; conditions: no treatment on third day
Experimental: An in vitro test was used in the Tests described herein for examining and effects of chemotherapeutic agents on plaque, and was carried out in accordance with the test reported in the Journal of Dental Research, Vol. 55, February 1976, page B286, by R T Evans, P J Baker, R A Coburn and R J Genco. An assay system for producing artificial plaque was used to screen antiplaque agents rapidly under conditions which simulated those found in the oral cavity. […] The assay gives reproducible, quantitative results and has the ability to distinguish between antibacterial agents which are clinically effective or non-effective as plaquae inhibitors. The in vitro plaque was formed at 37°C on uniformly- sized aluminium plummets which were first coated with saliva. The plummets were then placed in a growth medium inoculated with clinical plaque samples. After seven hours the plummets were suspended overnight in a 25;0 saliva mixture. On the second day, the plummets were immersed in a 50% saliva - 50% test compound mixture for one minute, placed in the growth medium for seven hours, retreated with the test mixture and suspended in 25% saliva overnight. The plummets were treated again on the third day and incubated in the growth medium for three hcurs. The plaques were removed from the plummets by donication into approximately six millilitres of buffer and quantitated by optical density (O.D.) in a Beckman DU spectrophotometer at 570 nm. […] Positive controls were included to determine relative activity. Comparisons of antiplaque activity were then made within a given experiment. At least five replicas per compound were examined. To test higher levels of tetradecylamine, the artificial plaque treatment previously described is eliminated on the third day to simulate infrequent use of the antiplaque products.

[5] = critical micellar concentration (CMC); assay type: physicochemical
[6] = cation or anion as such, by the in vitro assay
[7] = amine in place of tetradecylamine, in combination with metal compounds (zinc or aluminium)
[8] = metal salt alone 0.10 % Wt./Vol., 15% ethanol/water, pH 5
[9] = addition of CO2 to tetradecylamine

[Al] [aluminium]
minimum amount of the metal compound necessary to result in control of plaque [1]: about 0.001 molar | LD50 [2]: 3-4 g/kg body weight

[Fe] [iron]
minimum amount of the metal compound necessary to result in control of plaque [1]: ~500 µM | LD50 [2]: 0.3-0.9 g/kg body weight

O=S(=O)(O)O [sulphate]
synergistic plaque reductions [1, 6]: synergism has not been found; also recorded: synergism was not found

[Cu] [copper]
minimum amount of the metal compound necessary to result in control of plaque [1]: ~500 µM | LD50 [2]: 0.3-0.9 g/kg body weight

O=[N+]([O-])O [nitrate]
synergistic plaque reductions [1]: synergism has not been found; also recorded: synergism was not found

CCCCCCCCCCCCCCCCN [hexadecylamine, reference compound]
synergistic plaque reductions [1, 7]: do not give synergistic plaque reductions; also recorded: not found

[Ni] [nickel]
minimum amount of the metal compound necessary to result in control of plaque [1]: ~500 µM | LD50 [2]: 0.3-0.9 g/kg body weight

[O-][n+]1ccccc1[S-].[O-][n+]1ccccc1[S-].[Zn+2] [zinc salt]
reduction in plaque [3]: about 5%

O.O.O.O.O.O.[Al+3].[Cl-].[Cl-].[Cl-] [AlCl3.6H2O]
Average Optical Density ([4]; AlCl3.6H2O 1.00 % Wt/Vol): 1.218 | % Reduction ([4]; AlCl3.6H2O 1.00 % Wt/Vol, negative = weight gain): -9.4* % | Average Optical Density ([4]; AlCl3.6H2O .250 % Wt/Vol): 1.080 | % Reduction ([4]; AlCl3.6H2O .250 % Wt/Vol, vs H2O control): 3.0%

CCCCCCCCCCCCN(C)C [dimethyldodecylamine, reference compound]
synergistic plaque reductions [1, 7]: do not give synergistic plaque reductions

O.O.O.O.O.[Cl][Sn]([Cl])([Cl])[Cl] [SnCl4.5H2O, reference compound]
% Reduction ([1]; SnCl4.5H2O 0.05 % Wt/Vol., 15% ethanol, pH 2.6, negative = weight gain): -8* %

O.O.O.O.O.O.[Cl-].[Cl-].[Cl-].[Fe+3] [FeCl3.6H2O, reference compound]
% Reduction [1, 8]: -38%

CCCCCCCCCCCCCCCC[n+]1ccccc1 [CPC, cetyl pyridinium chloride, reference compound]
Average Optical Density ([1]; pH 4.1): .515

[K+] [potassium]
synergistic plaque reductions [1, 6]: have not been found to give synergistic plaque reductions; also recorded: did not give synergistic plaque reductions

[Co] [cobalt]
minimum amount of the metal compound necessary to result in control of plaque [1]: ~500 µM | LD50 [2]: 0.3-0.9 g/kg body weight

F [fluoride]
synergistic plaque reductions [1]: synergism has not been found; also recorded: synergism was not found

[Ca+2] [calcium]
synergistic plaque reductions [1]: have not been found to give synergistic plaque reductions; also recorded: did not give synergistic plaque reductions

O.O.O.O=[N+]([O-])[O-].O=[N+]([O-])[O-].[Cu+2] [Cu(NO3)2.3H2O, reference compound]
% Reduction [1, 8]: -10%

O.O.O.O.O.O.[Cl][Ni][Cl] [NiCl2.6H2O, reference compound]
% Reduction [1, 8]: -17%

[HH] [hydrogen]
synergistic plaque reductions [1, 6]: have not been found to give synergistic plaque reductions; also recorded: did not give synergistic plaque reductions

phosphate
synergistic plaque reductions [1, 6]: synergism has not been found; also recorded: synergism was not found

O.O.O.O.O.O.[Cl-].[Cl-].[Co+2] [CoCl2.6H2O, reference compound]
% Reduction [1, 8]: -25%

[Cl-].[Cl-].[Zn+2] [ZnCl2, reference compound]
Average Optical Density ([1]; ZnCl2 .30 % Wt/Vol, 15% ethanol, pH 4.1, O.D. at 570 nm): .766 | % Reduction ([1]; ZnCl2 .30 % Wt/Vol, 15% ethanol, pH 4.1, vs H2O control, negative = weight gain): -8.0* %

[Sn] [tin]
minimum amount of the metal compound necessary to result in control of plaque [1]: ~500 µM | LD50 [2]: about 0.05 g/kg body weight

CCCCCCCCCCCCCCCCCCN(C)C [N,N'-dimethyl-octadecylamine, reference compound]
synergistic plaque reductions [1, 7]: do not give synergistic plaque reductions

CCCCCCCCCCCCCCN [TDA, tetradecylamine, reference compound]
inhibition at 0.06 % ([1]; TDA 0.06 % Wt./Vol., 15% ethanol/water, pH 5, read-out: % Reduction): 19% | inhibition at 0.06 % ([1]; TDA 0.06 % Wt/Vol., 15% ethanol, pH 2.6, read-out: % Reduction): 19% | Average Optical Density ([1]; TDA .060 % Wt/Vol, 15% ethanol, pH 4.1, O.D. at 570 nm): .571 | inhibition at 0.06 % ([1]; TDA .060 % Wt/Vol, 15% ethanol, pH 4.1, vs H2O control, read-out: % Reduction): 18.8% | antiplaque activity [1, 9]: increased | inhibition at 0.06 % ([1]; dose-response curve, tetradecylamine 0.060%, no metal present, read-out: plaque reduction): 18% | inhibition at 0.2 % ([1]; dose-response curve, tetradecylamine 0.20%, no metal present, read-out: plaque reduction): 44% | Average Optical Density ([4]; TDA .120 % Wt/Vol): .882 | inhibition at 0.12 % ([4]; TDA .120 % Wt/Vol, vs H2O control, read-out: % Reduction): 20.7% | CMC [5, 9]: lowering | critical micellar concentration (CMC) ([5]; in combination with selected metals): lowered

CCCCCCCCCCCCN [Dodecylamine, reference compound]
synergistic plaque reductions [1, 7]: do not give synergistic plaque reductions | synergistic plaque reductions ([1]; amine in place of tetradecylamine, in combination with metal compounds (zinc or aluminium), listed as dodecylamine): not found

[Mg+2] [magnesium]
synergistic plaque reductions [1, 6]: have not been found to give synergistic plaque reductions; also recorded: did not give synergistic plaque reductions

[Na] [sodium]
synergistic plaque reductions [1, 6]: have not been found to give synergistic plaque reductions; also recorded: did not give synergistic plaque reductions

Cl [chloride]
synergistic plaque reductions [1, 6]: synergism has not been found; also recorded: synergism was not found

CCCCCCCCCCN [decylamine, reference compound]
synergistic plaque reductions [1, 7]: do not give synergistic plaque reductions

[Zn] [zinc]
minimum amount of the metal compound necessary to result in control of plaque [1]: about 0.001 molar | LD50 [2]: 3-4 g/kg body weight
